Entries after “also recorded” stand apart in the source; their conditions may differ. Some results are limits rather than exact numbers.

Series [1] deals with ovarian estradiol synthesis. Kind of series: Stimulation of ovarian oestrogen synthesis (HPG axis) in intact adult rats. Type of series: in vivo, rat. Conditions: hormonally intact adult rats, daily for 10 days; quotient of peripheral estradiol values after and before treatment. An excerpt: The clinical use both of pure anti-oestrogens and of various SERMs for the treatment of premenopausal women is limited by their property of stimulating the ovaries through activation of the hypothalamic-pituitary-gonadal axis (HPG axis), which leads to the increase in peripheral estradiol levels (Palomba, S., Orio, F., Jr., Morelli, M., Russo, T., Pellicano, M., Zupi, E., Lombardi, G., Nappi, C., Panici, P. L., and Zullo, F. (2002). Raloxifene administration in premenopausal women with uterine leiomyomas: a pilot study. J Clin Endocrinol Metab 87, 3603-3608). This stimulation of the HPG axis is associated with penetration of the blood-brain barrier and penetration of the brain. To investigate the ovary-stimulating properties of the claimed pharmacological compounds, hormonally intact adult rats were treated with the substances daily for a period of 10 days. The study end point is the quotient of peripheral estradiol values after and before treatment.

The subject of series [2] is endometriosis lesions. Kind of series: Endometriosis model in the rat (autologous transplantation). Type of series: in vivo. An excerpt:
Using intact adult female rats, experimental endometriosis was induced in the autologous transplantation model based on Vernon M. W. and Wilson E. A., 1985 (Fertil Steril. 44(5):684-694). A uterine horn was removed from animals that were exclusively in oestrus, the myometrium was separated from the endometrium and biopsies with dimensions of 4×4 mm were obtained from the endometrial tissue. Two uterine fragments were transplanted onto the inside of the abdominal wall (peritoneum) and two uterine fragments were transplanted onto the mesenterium of the same animal (4 fragments per animal). After 21 days the animals with endometriosis were laparotomized, and the size of the transplants was determined. The animals were treated after laparotomy and then daily in the morning with the stated dosages of the selected claimed substances by subcutaneous administration. Finally, 28 days after the start of treatment (49 days after transplantation), all the animals were laparotomized again and the size of the lesion was measured and was correlated with the size before the start of treatment.

For series [3], the system named is mammary gland. Kind of series: Action on the mammary gland in the juvenile rat. It counts as in vivo. Conditions: juvenile ovariectomized rats, 6 days. The protocol:
The formation of secretory units in the mamma is dependent in particular on gestagens and oestrogens. […] To investigate the stimulating action of test compounds, animals are ovariectomized at the age of 21 days and after a treatment-free interval of 6 days treated either with a combination of the test compound and an oestrogen (for example 70 μg/kg E1) or a combination of the test compound and a gestagen (for example promegestone 0.3 mg/kg) in each case for a period of 6 days. To investigate the antagonistic potential of a test compound, the test compound is given for a period of 6 days together with an oestrogen (see above) and a gestagen (see above). Finally one of the abdominal-inguinal mammary glands is prepared and submitted to so-called whole-mount staining. The number of secretory units on an area of approx. 1.0 mm^2 serves as the end point (moreover, this can also vary according to requirements).

Consider `CN(CCCCCCC1=C(c2cc(F)cc(F)c2)CCCc2cc(O)ccc21)CCCCS(=O)(=O)CCCC(F)(F)F` [Example 44, 8-(3,5-Difluorophenyl)-9-[6-(methyl{4-[(4,4,4-trifluorobutyl)sulphonyl]butyl}amino)hexyl]-6,7-dihydro-5H-benzo[7]annulen-3-ol], for which the “Stimulation of ovarian oestrogen synthesis: factor at a dose of 3 mg/kg rat” value in series [1] worked out at 1.2. In series [2] (animals of the FIG. 2C experiment (FIG. 2D)), the “peripheral (blood) estradiol level of the treated animals” value is reported as “does not lead to an increase in peripheral estradiol level above the physiological range; also recorded: None of the groups treated with example compound 44 in the stated dosages shows levels above or below the naturally occurring estradiol levels”. Besides, the “reduction of lesion sizes, independent experiment” value in series [2] (rat, 0.3 mg/kg to 13 mg/kg, three dosages (FIG. 2C)) is “significant dose-dependent reduction of lesion sizes; also recorded: all three dosages lead to a significant reduction of the lesion”. The “dosage with significant reduction in sizes of lesions” value in series [2] (rat, 28 days of treatment, 115 tested 0.1-1 mg/kg, 44 tested 0.3-10 mg/kg) is on record as no less than 1 mg/kg. For the same molecule, the “reduction of lesion size” value in series [2] (rat, s.c. daily, 4 weeks (FIG. 2A, FIG. 2B)) is “significant dose-dependent reduction of lesion size”. Moreover, the “induction of mammary gland differentiation (agonistic potential)” value in series [3] (test compound alone with gestagen R5020 or alone with oestrogen E1) is “no induction of mammary gland differentiation significantly different from the group given excipients; also recorded: did not show any agonistic, inducing potential”. For the same molecule, the “formation of mammary secretory units induced by E1 and R5020” value in series [3] (test compound with oestrogen E1 and gestagen promegestone (R5020)) is given as “dose-dependent inhibition; also recorded: dose-dependent reduction of this effect”.
